The structures appear in SMILES notation. “Also recorded” adds a separate entry of the source.

Common to all, as to type: in vivo
In experiment [1] the test system is C57BL/6 mice with UUO surgical ligation. The experiment in a line: Example 1: UUO mice, renal function evaluation (plasma BUN, creatinine). The following applies: Example 1; for Reduction in BUN compared to vehicle, significance in words: Bonferroni post-test, Suplatast Tosylate 60, Iguratimod 15, Lobenzarit 48, Actarit 60, Udenafil 40 mg/kg PO QD; for BUN in comparison to control groups, in words: UUO, male C57BL/6 mice, PO QD days 1-14, doses of Table 1. Here is the method: (§1) Male 9-12 week old C57BL/6 mice of 23-25 grams body weight were used. All mice were acclimated for a minimum of 5 days prior to the start of the study and housed individually in microisolators throughout the study in a 12:12 light-dark cycle on a standard maintenance mouse chow diet (Harlan Teklad 2018) with food and water given ad libitum. Prior to surgery, all mice were weighed for baseline body weight.
(§2) The UUO surgical intervention was performed according to previously described methods known in the art (Le Meur Y et al., Macrophage accumulation at a site of renal inflammation is dependent on the M-CSF/c-fms pathway, J Leukocyte Biol., 72:530-537; 2002).
(§3) All mice were first anesthetized by intraperitoneal injection with a rodent cocktail (ketamine 10 mg/mL and Xyaline 1 mg/mL) in normal saline (10 μL/g body weight). Pedal reflex and movement of the vibrissae were used to determine the state of unconsciousness. A state of unconsciousness was confirmed after a period of about 5 minutes in all animals. All mice were then shaved on the left side of the abdomen. The shaved area was first swabbed with iodine and then swabbed with alcohol. A vertical incision was made through the skin with a #22 scalpel and the skin was then retracted. A further incision of about 2.5 cm was then made through the peritoneum avoiding any major blood vessels. The peritoneum was then retracted and the left kidney was exposed.
(§4) The left kidney was then brought to the surface by hooking the ureter directly beneath the kidney with sterile forceps and gently manipulating the kidney upward. The ureter was ligated at two points directly below the kidney with 5-0 surgical silk with excess suture cut away and discarded post-ligation. The kidney was then gently placed back to its correct anatomical position and the abdomen was lavaged with 1 mL sterile saline to replenish fluid loss. The peritoneum and then skin were sutured with 5-0 Mersilene, and the incision site was gently wiped with iodine. All mice were then placed individually in clean cages that were set on top of a thermal blanket until recovery at about 30-60 minutes later. In some examples, sham surgery was performed as a control by following all steps of the UUO surgical intervention procedure except ligation.
(§5) Following surgery, the mice were divided into 14 individual study groups of 8 mice each and, following post-surgical recovery, administered a once-daily oral treatment for 14 days. The mice in 12 of the 14 study groups (hereafter known as “treatment groups”) had all received the UUO surgical ligation and were treated individually with a distinct pharmacologic compound as set out in Table 1. The mice in 2 of the 14 study groups were treated individually with a pharmaceutically acceptable vehicle with no active ingredient. The pharmaceutically acceptable vehicle in all groups was 0.5% carboxymethyl cellulose (CMC). All mice were sacrificed with CO2 on post-surgical day 15.
The dose selected for the animal studies was determined by taking the maximum known human daily dose, dividing by the average weight of an adult (˜60-70 kg) to get a human mg/kg dose. Then that number was multiplied by 12 to convert to a mouse dose based on conventional dosing tables. See Nair and Jacob, J Basic Clin Pharm March 2016-May 2016, 7(2):27-31.
Serum collection: A blood sample was then collected from all mice and plasma analyzed for urea nitrogen and creatinine. Plasma was stored at −80° C. for possible future analysis.
Renal Function Evaluation: Renal function and disease progression was evaluated by BUN (blood urea nitrogen) as previously described. The BUN of each study group consisted of the BUN average of all mice in each study group.

The test system is the same in experiment [2]. As to the kind of experiment: Example 1: UUO mice, renal fibrosis evaluation (Sirius Red histology score). The following applies: Bemithyl 200, Emoxypine 160, Suplatast Tosylate 60, Udenafil 40, Telmisartan 5 mg/kg PO QD. Here is the method: as §1, §2, §3, §4, §5
(§6) The dose selected for the animal studies was determined by taking the maximum known human daily dose, dividing by the average weight of an adult (˜60-70 kg) to get a human mg/kg dose. […]
Histopathology: Formalin-fixed kidney cross-section samples were subjected histopathological scoring with Sirius Red staining, and imaged at a magnification of ×20, using standard techniques. All three sections were stained and evaluated. […] The presence of interstitial damage and severity score was assessed according to the following criteria: 0=normal, 1=light, 2=moderate, 3=severe. […]

For experiment [3] the test system is unchanged. As to the kind of experiment: Example 1: UUO mice, kidney weight evaluation (ligated vs non-ligated kidney). Particulars: doses of Table 1. Here is the method:
as §1
The UUO surgical intervention was performed according to previously described methods known in the art (Le Meur Y et al., Macrophage accumulation at a site of renal inflammation is dependent on the M-CSF/c-fms pathway, J Leukocyte Biol., 72:530-537; 2002). […]
as §6
Kidney weight: The UUO was then examined in situ to ensure that the surgical ligation ties remained patent. […] Weights of both kidneys were measured using a laboratory balance.
Kidney Weight Evaluation: Kidney weight indicating, which indicates functional and pathological changes in the kidney, was evaluated by measuring the weight of both the ligated (UUO) and non-ligated kidneys as previously described. […]

Experiment [4] is described as follows: Example 1: UUO mice, mean body weight change following surgery. The following applies: Example 1, mostly post-surgical day 14, male C57BL/6 mice, PO QD days 1-14, doses of Table 1. The procedure: as §1, §2, §3, §4, §5, §6
Body weight: The body weights were measured on days 1, 2, 5, 8, 10 and 14 using a laboratory balance.
Body weights were measured on post-surgical days 1, 2, 5, 8, 10 and 14 as previously described. The mean body weight change of each study group was calculated using the body weight average of all mice in each study group.

As for `CCCOc1ccc(S(=O)(=O)NCCC2CCCN2C)cc1-c1nc(=O)c2c([nH]1)c(CCC)nn2C` (stereo not drawn) [Udenafil], in experiment [1], the “Reduction in BUN compared to vehicle, significance in words” value is listed as “significant reductions in BUN”; the “BUN in comparison to control groups, in words” value was “less renal dysfunction and disease progression than the positive control treatment; also recorded: decreased in comparison to the sham surgery control group”. Also, in experiment [2], the “Kidney fibrosis / Histology Score, significance and comparison in words” value was “significant reductions in kidney fibrosis; also recorded: significant reduction in fibrosis compared to vehicle”.

As to `CCn1c(=O)c2c(nc(/C=C/c3ccc(OC)c(OC)c3)n2C)n(CC)c1=O` [Istradefylline, 8-[(E)-2-(3,4-dimethoxyphenyl)vinyl]-1,3-diethyl-7-methyl-3,7-dihydro-1H-purine-2,6-dione], the “Ligated kidney weight in comparison to control groups, in words” value in experiment [3] is “increased in comparison to the remaining 13 study groups”. For the same molecule, the “Mean body weight change, comparison with control groups, in words” value in experiment [4] is given as “greater decrease in body weight”.

As to `CCOCC(O)COc1ccc(NC(=O)CC[S+](C)C)cc1.Cc1ccc(S(=O)(=O)[O-])cc1` (stereo not drawn) [Suplatast Tosylate, (3-{[4-(3-ethoxy-2-hydroxypropoxy)phenyl]amino}-3-oxopropyl)(dimethyl)sulfonium 4-methylbenzenesulfonate], in experiment [1], the “Reduction in BUN compared to vehicle, significance in words” value was “significant reductions in BUN” and the “BUN in comparison to control groups, in words” value was “decreased in comparison to the sham surgery control group”. For the same molecule, the “Kidney fibrosis / Histology Score, significance and comparison in words” value in experiment [2] (4-methylbenzenesulfonate) was “the same as the positive control treatment group; also recorded: significant reductions in kidney fibrosis; also recorded: significant reduction in fibrosis compared to vehicle”. In experiment [4], the “Mean body weight change, comparison with control groups, in words” value is on record as “comparable to that of the surgery vehicle control group”.

Values taken from patent US12280026B2, “Use of repirinast in the prophylaxis or treatment of renal fibrosis or kidney disease” (ALGERNON PHARMACEUTICALS INC., priority 2018, dated 2025).
